Measurements from patent US20110003820A1, “PYRAZOLOPYRIMIDINES, A PROCESS FOR THEIR PREPARATION AND THEIR USE AS MEDICINE” (MERZ PHARMA GMBH & CO. KGaA, priority 2008, published 2011).

Experiments:
mGluR5 receptors = target: T1, mGluR5 receptors (Rattus norvegicus, UniProt P31424); test: Cytosolic Calcium studies with astrocytes (astrocyte culture test, FLIPR); format: cell-based; settings: primary rat cortical astrocytes; L-quisqualate 100 nM; read-out: mGluR5_FLIPRr_rpA IC50
T1 construct: Primary astrocyte cultures are prepared from cortices of newborn rats; endogenous in cells; host or cells: primary cortical astrocytes of Sprague-Dawley rat pups (2-4 d old)
Method: Primary astrocyte cultures are prepared from cortices of newborn rats as described by Booher and Sensenbrenner (1972, Neurobiology 2(3):97-105). Briefly, Sprague-Dawley rat pups (2-4 d old) are decapitated and neocortices are dissected, disintegrated with a nylon filter (pore size 80 μm) and carefully triturated. The cell suspension is plated on poly-D-lysine pre-coated flasks (Costar, Netherlands) and cultivated in Dulbecco's Modified Eagle's Medium (DMEM, Invitrogen, Germany) supplemented with 10% foetal calf serum (FCS, Sigma, Germany), 4 mM glutamine and 50 μg/ml gentamycin (both Biochrom, Germany) at 37° C. in a humidified atmosphere of 5% CO2/95% air for 7 d with exchanging the medium at day 2 and 6.
After 7 days in vitro (DIV), cells are shaken overnight at 250 rpm to remove oligodendrocytes and microglia. The next day, astrocytes are rinsed twice with CMF-PBS (calcium- and magnesium-free phosphate buffered saline, Biochrom, Germany), trypsinized and subplated on poly-D-lysine pre-coated 96-well plates (Greiner, Germany) at a density of 40,000 cells/well. 24 h after establishing the secondary culture the astrocytes are rinsed with PBS^++ (phosphate buffered saline, Biochrom, Germany) and fed with astrocyte-defined medium (ADM) consisting of DMEM containing 1×G5-supplement (Invitrogen, Germany), 0.5 μg/ml heparan sulfate, and 1.5 μg/ml fibronectin (both Sigma, Germany) (Miller et al., (1993) Brain Res. 618(1):175-8). 3 d later the medium is exchanged and the cells incubated for another 2-3 d, so that at the time of experiments astrocytes are 14-15 DIV.
Cytosolic Calcium Studies with Astrocytes:
The increase of cytosolic calcium after stimulation with the mGluR5 agonist L-quisqualate is measured using a fluorometric imaging plate reader (FLIPR) and the Ca-Kit (both Molecular Devices). Prior to addition of agonist or antagonist the medium is aspirated and cells are loaded for 2 h at RT with 150 μl of loading buffer consisting of Ca-sensitive dye reconstituted in sodium chloride (123 mM), potassium chloride (5.4 mM), magnesium chloride (0.8 mM), calcium chloride (1.8 mM), D-glucose (15 mM), and HEPES (20 mM), pH 7.3. Subsequently, plates are transferred to FLIPR to detect calcium increase with the addition of L-quisqualate (100 nM) measured as relative fluorescence units (RFU). If antagonists are tested, these compounds are pre-incubated for 10 minutes at RT before addition of the respective agonist.
(§1) The fluorescence signal increase after addition of agonist reflects the increase of cytosolic calcium. Inconsistencies in the amount of cells per well are normalised by using the spatial uniformity correction of the FLIPR software. The mean of replicated temporal data (n=3-5) is calculated and used for graphical representation. For the evaluation of the pharmacology, the calcium changes in response to different concentrations of agonist or antagonist are determined using a maximum minus minimum (MaxMin) calculation.
(§2) All responses (RFU-values) are determined as percentage of control (=maximum response). EC50 and IC50 are calculated according the logistic equation using GraFit 5.0 (Erithacus Software, GB) or Prism 4.0 (GraphPad Software, USA). The compounds of the present invention have a potency (IC50) within a range of about […].

[1] = target: T2, transmembrane allosteric modulatory sites of mGluR5 receptors in cortical membranes (Rattus norvegicus, UniProt P31424); test: [3H]-MMPEP binding assay in rat cortical membranes; settings: 3H-MMPEP radioligand, read-out: mGluR5_M_MPEP_r_CTX_IC50
T2 construct: from tissue; host or cells: cortex of male Sprague-Dawley rats, membrane preparation
Method: Binding Assays for the Characterization of mGluR5 Antagonists
Preparation of Rat Cortical Membranes:
Male Sprague-Dawley rats (200-250 g) are decapitated and their brains are removed rapidly. The cortex is dissected and homogenized in 20 volumes of ice-cold 0.32 M sucrose using a glass-Teflon homogenizer. The homogenate is centrifuged at 1000×g for 10 minutes. The pellet is discarded and the supernatant centrifuged at 20,000×g for 20 minutes. The resulting pellet is re-suspended in 20 volumes of distilled water and centrifuged for 20 minutes at 8000×g. Then the supernatant and the buffy coat are centrifuged at 48,000×g for 20 minutes in the presence of 50 mM Tris-HCl, pH 8.0. The pellet is then re-suspended and centrifuged two to three more times at 48,000×g for 20 minutes in the presence of 50 mM Tris-HCl, pH 8.0. All centrifugation steps are carried out at 4° C. After resuspension in 5 volumes of 50 mM Tris-HCl, pH 8.0 the membrane suspension is frozen rapidly at −80° C.
On the day of assay the membranes are thawed and washed four times by resuspension in 50 mM Tris-HCl, pH 8.0 and centrifugation at 48,000×g for 20 minutes and finally re-suspended in 50 mM Tris-HCl, pH 7.4. The amount of protein in the final membrane preparation (500-700 μg/ml) is determined according to the method of Lowry (Lowry O. H. et al. 1951. J. Biol. Chem. 193, 256-275).
Incubations are started by adding[^3H]-MPEP (50.2 Ci/mmol, 5 nM, Tocris, GB) to vials with 125-250 μg protein (total volume 0.25 ml) and various concentrations of the agents.
Alternatively, assays are performed with [^3H]-MMPEP (2-(3-methoxyphenylethynyl)-6-methylpyridine hydrochloride) as radioligand. The incubations are continued at room temperature for 60 minutes (equilibrium is achieved under the conditions used). […] Incubations are terminated using a Millipore filter system. The samples are rinsed twice with 4 ml of ice-cold assay buffer over glass fibre filters (Schleicher & Schuell, Germany) under a constant vacuum. Following separation and rinse, the filters are placed into scintillation liquid (5 ml Ultima Gold, Perkin Elmer, Germany) and radioactivity retained on the filters is determined with a conventional liquid scintillation counter (Can berra Packard, Germany).

[2] = target: T3, metabotropic glutamate receptor (mGluR5) (Homo sapiens, UniProt P41594); test: Cytosolic Calcium studies with stably transfected cells (FLIPR, CHO-K1); format: cell-based; set-up: expressed in transfected cells; host or cells: CHO-K1 cells, IPTG-inducible expression; settings: CHO-K1 cells expressing human mGluR5; agonist L-quisqualic acid at ~80% of maximal signal; read-out: mGluR5_FLIPR_h_CHO_NAM IC50
Method: Functional Assays of mGluR5 Receptors
Cytosolic Calcium studies with stably transfected cells:
Chinese hamster ovary cells (CHO-K1 cells), stably transfected for inducible expression of a human metabotropic glutamate receptor mGluR5, are seeded into black clear bottom 96 well plates at a density of 35.000 cells per well. The standard growth medium used (Dulbecco's modified Eagle Medium, DMEM plus L-proline) contains the appropriate inducer isopropyl-β-D-thiogalactopyranosid (IPTG) to achieve optimal receptor expression. One day after seeding the growth medium is exchanged for reconstituted Ca-Kit (Molecular Devices, USA) and incubated for one hour. Ca-Kit is reconstituted in an assay buffer containing 20 mM HEPES pH 7.4, glutamic-pyruvate transaminase, pyridoxal phosphate and sodium pyruvate in Hank's balanced salt solution (HBBS). Agonistic compounds to the receptor elicit increases in cytosolic calcium which can be measured as increases in fluorescence signals by use of a fluorescence imaging plate reader (Molecular Devices).
as §1, §2

[3] = target: T3, metabotropic glutamate receptor (mGluR5); test: Activity as mGluR5 modulator of prior-art compounds (test not described); settings: result in words

T3 sequence (P41594 21-1212): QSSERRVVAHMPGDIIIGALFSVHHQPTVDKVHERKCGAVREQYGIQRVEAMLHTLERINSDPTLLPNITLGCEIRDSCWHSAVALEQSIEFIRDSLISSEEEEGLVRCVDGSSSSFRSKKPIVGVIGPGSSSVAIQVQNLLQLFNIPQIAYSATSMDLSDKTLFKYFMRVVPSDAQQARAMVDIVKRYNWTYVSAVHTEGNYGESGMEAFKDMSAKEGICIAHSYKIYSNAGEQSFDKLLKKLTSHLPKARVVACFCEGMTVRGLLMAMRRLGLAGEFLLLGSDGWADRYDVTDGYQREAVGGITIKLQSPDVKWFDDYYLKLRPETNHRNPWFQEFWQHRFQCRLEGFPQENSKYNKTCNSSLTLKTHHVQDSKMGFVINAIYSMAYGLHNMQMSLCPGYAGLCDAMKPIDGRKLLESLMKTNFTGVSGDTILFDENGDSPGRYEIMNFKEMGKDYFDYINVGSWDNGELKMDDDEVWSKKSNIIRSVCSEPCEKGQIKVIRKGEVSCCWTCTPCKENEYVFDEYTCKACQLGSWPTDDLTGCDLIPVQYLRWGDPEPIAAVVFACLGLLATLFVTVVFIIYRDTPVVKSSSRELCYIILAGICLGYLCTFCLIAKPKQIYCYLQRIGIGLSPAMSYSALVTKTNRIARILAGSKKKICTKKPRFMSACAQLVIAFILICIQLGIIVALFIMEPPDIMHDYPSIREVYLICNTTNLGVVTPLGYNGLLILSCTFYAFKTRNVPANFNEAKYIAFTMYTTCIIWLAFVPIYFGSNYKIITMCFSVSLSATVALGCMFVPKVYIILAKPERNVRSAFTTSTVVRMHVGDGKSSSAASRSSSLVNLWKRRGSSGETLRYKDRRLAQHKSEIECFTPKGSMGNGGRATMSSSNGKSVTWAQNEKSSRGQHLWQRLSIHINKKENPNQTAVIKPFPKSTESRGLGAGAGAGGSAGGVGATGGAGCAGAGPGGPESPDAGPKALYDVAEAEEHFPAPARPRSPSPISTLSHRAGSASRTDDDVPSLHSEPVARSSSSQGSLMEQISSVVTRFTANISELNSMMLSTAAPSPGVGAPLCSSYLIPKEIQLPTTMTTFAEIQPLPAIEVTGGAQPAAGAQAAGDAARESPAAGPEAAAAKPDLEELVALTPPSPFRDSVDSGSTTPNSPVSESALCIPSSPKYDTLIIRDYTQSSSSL
T1 sequence (P31424 21-1203): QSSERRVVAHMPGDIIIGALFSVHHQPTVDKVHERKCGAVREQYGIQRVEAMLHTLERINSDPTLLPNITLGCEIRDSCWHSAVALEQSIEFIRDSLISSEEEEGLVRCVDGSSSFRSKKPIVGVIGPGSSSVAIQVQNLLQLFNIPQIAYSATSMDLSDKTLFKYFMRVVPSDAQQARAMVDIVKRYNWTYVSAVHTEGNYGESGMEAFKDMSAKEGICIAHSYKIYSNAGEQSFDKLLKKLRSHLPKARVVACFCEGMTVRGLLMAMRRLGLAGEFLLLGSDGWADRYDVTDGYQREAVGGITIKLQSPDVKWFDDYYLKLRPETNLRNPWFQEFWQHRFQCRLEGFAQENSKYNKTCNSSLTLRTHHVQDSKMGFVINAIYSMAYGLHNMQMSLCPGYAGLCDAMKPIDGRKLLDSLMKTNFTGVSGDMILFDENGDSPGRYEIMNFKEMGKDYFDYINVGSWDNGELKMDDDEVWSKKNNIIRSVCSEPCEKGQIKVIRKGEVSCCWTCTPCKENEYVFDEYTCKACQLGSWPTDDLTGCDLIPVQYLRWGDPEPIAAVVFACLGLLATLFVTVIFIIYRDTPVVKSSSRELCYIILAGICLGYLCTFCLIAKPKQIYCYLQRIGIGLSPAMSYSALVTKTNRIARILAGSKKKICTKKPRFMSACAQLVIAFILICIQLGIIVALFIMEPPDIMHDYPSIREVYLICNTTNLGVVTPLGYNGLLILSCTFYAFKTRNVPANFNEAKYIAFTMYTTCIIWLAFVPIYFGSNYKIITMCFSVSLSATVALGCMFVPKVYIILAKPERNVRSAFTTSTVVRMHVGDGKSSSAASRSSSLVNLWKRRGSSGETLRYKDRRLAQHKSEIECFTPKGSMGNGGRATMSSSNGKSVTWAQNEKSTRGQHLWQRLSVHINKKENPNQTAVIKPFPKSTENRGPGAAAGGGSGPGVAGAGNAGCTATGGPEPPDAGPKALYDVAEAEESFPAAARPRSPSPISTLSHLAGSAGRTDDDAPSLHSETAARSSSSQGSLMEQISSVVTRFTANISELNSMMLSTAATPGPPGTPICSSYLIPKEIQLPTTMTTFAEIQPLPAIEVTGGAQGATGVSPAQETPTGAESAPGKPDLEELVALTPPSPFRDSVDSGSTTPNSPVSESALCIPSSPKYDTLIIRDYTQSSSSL
T2 sequence (P31424 21-1203): as above

| Compound | IC50 (mGluR5 receptors) | IC50 [1] | IC50 [2] | activity as metabotropic glutamate receptor (mGluR5) modulator [3] | selectivity [3] |
| --- | --- | --- | --- | --- | --- |
| C[C@@H]1c2ccc(Cl)n2CCN1C(=O)c1cc2ncc(Br)cn2n1 [(R)-(6-Bromo-pyrazolo[1,5-a]pyrimidin-2-yl)-(6-chloro-1-methyl-3,4-dihydro-1H-pyrrolo[1,2-a]pyrazin-2-yl)-methanone] | 7.8 nM |  | 24.5 nM |  |  |
| CC1c2ccc(Br)n2CCN1C(=O)c1cc2ncc(Cl)cn2n1 (stereo not drawn) [Example 37, (6-Bromo-1-methyl-3,4-dihydro-1H-pyrrolo[1,2-a]pyrazin-2-yl)-(6-chloro-pyrazolo[1,5-a]pyrimidin-2-yl)-methanone] | 17 nM | 73 nM | 34.2 nM |  |  |
| CN1c2ccccc2CCN1C(=O)c1cc2ncc(Br)cn2n1 [Example 182, (6-Bromo-pyrazolo[1,5-a]pyrimidin-2-yl)-(1-methyl-3,4-dihydro-1H-cinnolin-2-yl)-methanone] | 63.7 nM | 281 nM | 189 nM |  |  |
| O=C(c1cc2ncc(Br)cn2n1)N1CCCCC1 [Example B308, (6-Bromopyrazolo[1,5-a]pyrimidin-2-yl)-piperidin-1-yl-methanone] |  |  |  | no particular activity |  |
| O=C(c1cc2ncc(Br)cn2n1)N1CCOCC1 [Example B310, (6-Bromopyrazolo[1,5-a]pyrimidin-2-yl)-morpholin-4-yl-methanone] |  |  |  | no particular activity |  |
| O=C(c1cc2ncc(Br)cn2n1)N1CCc2ccccc2C1 [M, (6-Bromo-pyrazolo[1,5-a]pyrimidin-2-yl)-(1,2,3,4-tetrahydro-isoquinolin-2-yl)-methanone] |  |  |  | only a limited activity | not selective |

More lines, now with the values ahead:

| IC50 (mGluR5 receptors) | IC50 [1] | IC50 [2] | activity as metabotropic glutamate receptor (mGluR5) modulator [3] | selectivity [3] | Compound |
| --- | --- | --- | --- | --- | --- |
| 34.3 nM | 74 nM | 118 nM |  |  | Cc1ccc2n1CCN(C(=O)c1cc3ncc(Br)cn3n1)[C@@H]2C [(R)-(6-Bromo-pyrazolo[1,5-a]pyrimidin-2-yl)-(1,6-dimethyl-3,4-dihydro-1H-pyrrolo[1,2-a]pyrazin-2-yl)-methanone] |
| 87.3 nM | 274 nM | 327 nM |  |  | Cc1ccc2n1CCN(C(=O)c1cc3ncc(Cl)cn3n1)C2C (stereo not drawn) [Example 5, (6-Chloro-pyrazolo[1,5-a]pyrimidin-2-yl)-(1,6-dimethyl-3,4-dihydro-1H-pyrrolo[1,2-a]pyrazin-2-yl)-methanone] |
| 50 nM | 219 nM | 222 nM |  |  | Cc1ccc2n1CCN(C(=O)c1cc3ncc(Br)cn3n1)C2C (stereo not drawn) [Example 7, (6-Bromo-pyrazolo[1,5-a]pyrimidin-2-yl)-(1,6-dimethyl-3,4-dihydro-1H-pyrrolo[1,2-a]pyrazin-2-yl)-methanone] |
| 21.9 nM | 42 nM | 91 nM |  |  | CC1c2ccc(Cl)n2CCN1C(=O)c1cc2ncc(Cl)cn2n1 (stereo not drawn) [Example 29, (6-Chloro-1-methyl-3,4-dihydro-1H-pyrrolo[1,2-a]pyrazin-2-yl)-(6-chloro-pyrazolo[1,5-a]pyrimidin-2-yl)-methanone] |
| 22.5 nM | 44.5 nM | 84.4 nM |  |  | CC1c2ccc(Cl)n2CCN1C(=O)c1cc2ncc(Br)cn2n1 (stereo not drawn) [Example 31, (6-Chloro-1-methyl-3,4-dihydro-1H-pyrrolo[1,2-a]pyrazin-2-yl)-(6-bromo-pyrazolo[1,5-a]pyrimidin-2-yl)-methanone] |
| 15 nM | 54.9 nM | 74.5 nM |  |  | CC1c2ccc(Br)n2CCN1C(=O)c1cc2ncc(Br)cn2n1 (stereo not drawn) [Example 39, (6-Bromo-1-methyl-3,4-dihydro-1H-pyrrolo[1,2-a]pyrazin-2-yl)-(6-bromo-pyrazolo[1,5-a]pyrimidin-2-yl)-methanone] |
| 82.3 nM | 247 nM | 166 nM |  |  | CN1c2ccccc2CCN1C(=O)c1cc2ncc(Cl)cn2n1 [Example 181, (6-Chloro-pyrazolo[1,5-a]pyrimidin-2-yl)-(1-methyl-3,4-dihydro-1H-cinnolin-2-yl)-methanone] |
